Experimental data reported in ChEMBL document CHEMBL1201862, “PubChem BioAssay data set” (2004).
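48-hour exposure; five concentrations; linearly interpolated endpoints. At the GI50, growth is halved.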 The source made the active and inactive calls. No stated cut-off is given here; in the data, active = GI50 up to about 1.1 µM and inactive = higher.

Assays:
Experiment in all cases: DTP human tumour cell line panel, 48 h
SNB-75 = tested on: SNB-75
HL-60 = tested on: HL-60
CAKI-1 = tested on: CAKI-1
COLO 205 = tested on: COLO 205
NCI-H226 = tested on: NCI-H226
786-0 = tested on: 786-0
SK-MEL-2 = tested on: SK-MEL-2
K562 = tested on: K562
SF-295 = tested on: SF-295
SW-620 = tested on: SW-620
LOX IMVI = tested on: LOX IMVI
Malme-3M = tested on: Malme-3M
UO-31 = tested on: UO-31
NCI-H460 = tested on: NCI-H460
UACC-62 = tested on: UACC-62
HCT-15 = tested on: HCT-15
DU-145 = tested on: DU-145
HOP-92 = tested on: HOP-92
HOP-62 = tested on: HOP-62
Hs-578T = tested on: Hs-578T

| SMILES | GI50 (SNB-75) | GI50 (HL-60) | GI50 (CAKI-1) | GI50 (COLO 205) | GI50 (NCI-H226) | GI50 (786-0) | GI50 (SK-MEL-2) | GI50 (K562) | GI50 (SF-295) | GI50 (SW-620) | GI50 (LOX IMVI) | GI50 (Malme-3M) | GI50 (UO-31) | GI50 (NCI-H460) | GI50 (UACC-62) | GI50 (HCT-15) [µM] | GI50 (DU-145) | GI50 (HOP-92) | GI50 (HOP-62) | GI50 (Hs-578T) |
| --- | --- | --- | --- | --- | --- | --- | --- | --- | --- | --- | --- | --- | --- | --- | --- | --- | --- | --- | --- | --- |
| CC(C)(C)OC(=O)C(C#N)C(=O)c1ccc(C(=O)O)[nH]1 (stereo unspecified) | 50.5 µM (inactive) | 21.7 µM (inactive) | 18.8 µM (inactive) | 40.2 µM (inactive) | 38 µM (inactive) | 51.9 µM (inactive) | 23.6 µM (inactive) | 22.6 µM (inactive) | 33.5 µM (inactive) | 34.9 µM (inactive) | 27.7 µM (inactive) | 35.2 µM (inactive) | 30.8 µM (inactive) | 29.7 µM (inactive) | 18.3 µM (inactive) | 23.2 | 48.2 µM (inactive) | 12 µM (inactive) |  |  |
| O=C1C(Cl)=C(NCCF)C(=O)c2ncccc21 | 1.29 µM (inactive) | 5.11 µM (inactive) |  |  | 1.92 µM (inactive) | 1.82 µM (inactive) | 1.68 µM (inactive) | 0.321 µM (active) | 1.75 µM (inactive) | 1.36 µM (inactive) | 0.724 µM (active) | 1.57 µM (inactive) | 1.32 µM (inactive) | 1.65 µM (inactive) | 0.977 µM (active) | 2.08 | 1.6 µM (inactive) |  | 2.04 µM (inactive) | 1.83 µM (inactive) |
| Oc1cc(CN2COc3ccccc32)c(O)cc1CNC1CCCCC1 | 18.8 µM (inactive) |  | 28.3 µM (inactive) | 17 µM (inactive) |  | 18.5 µM (inactive) | 23.3 µM (inactive) | 21.9 µM (inactive) | > 100 µM (inactive) | 35.6 µM (inactive) | 16.6 µM (inactive) | 18.9 µM (inactive) | 35.4 µM (inactive) | 17.1 µM (inactive) | 23.9 µM (inactive) | 20.1 | 45.2 µM (inactive) | 28.2 µM (inactive) | 71.1 µM (inactive) | 28.7 µM (inactive) |
| COc1cc2c(cc1OC)C(C)N(C)c1c-2c(OC(C)=O)cc2cc(OC)c(OC)cc12 (stereo unspecified) | 31 µM (inactive) |  | 16.1 µM (inactive) | 6.43 µM (inactive) | 2.33 µM (inactive) | 13.1 µM (inactive) | 13.5 µM (inactive) | 23.4 µM (inactive) | 11.8 µM (inactive) | 23.7 µM (inactive) | 13.2 µM (inactive) | 3.72 µM (inactive) | 12.1 µM (inactive) | 6.38 µM (inactive) | 12.5 µM (inactive) | 15 | 16.9 µM (inactive) |  | 21.3 µM (inactive) | 19.1 µM (inactive) |
| COc1cn2c(cc1=O)COc1ccc(-c3ccccc3)cc1-2 | 35.8 µM (inactive) | 41.3 µM (inactive) | 43.4 µM (inactive) | 56 µM (inactive) | 64.6 µM (inactive) | > 88.1 µM (inactive) | > 100 µM (inactive) | 89.3 µM (inactive) | > 78.2 µM (inactive) | > 100 µM (inactive) | 36.9 µM (inactive) | 42.6 µM (inactive) | 28.4 µM (inactive) | 37.6 µM (inactive) | 44 µM (inactive) | 54.5 | 52.4 µM (inactive) | 46.9 µM (inactive) | 83.6 µM (inactive) |  |
| CCOC(=O)C(=[N+]=[N-])C(=O)CN1C(=O)c2ccccc2C1=O | > 100 µM (inactive) |  | > 100 µM (inactive) | > 100 µM (inactive) |  | > 100 µM (inactive) | > 100 µM (inactive) | > 100 µM (inactive) | > 100 µM (inactive) | > 100 µM (inactive) |  |  | > 100 µM (inactive) | > 100 µM (inactive) | > 100 µM (inactive) | > 100 | > 100 µM (inactive) | > 100 µM (inactive) | > 100 µM (inactive) | > 100 µM (inactive) |
